Bridges are numbered along the chain shown (N, C = ends). Where no end group is shown, it is not given here.
Key:
[1] = test system: artificial blood vessels produced from iPS cells derived from Werner syndrome patients (WS2-C5 co-culture); experiment: Contraction of artificial blood vessels produced from Werner syndrome patient iPS cells compared with those from healthy subjects; format: cell-based, human; details: for relative contraction rate, Werner derived vs WT derived iPSC blood vessels: 200 nM U46619 or 100 nM angiotensin II, contraction amount with 100 mM KCl as 100%, FIG. 9B; for contraction against stimulation, WS2-C5 co-culture vs 201B7 co-culture: n=4, FIG. 9A
Protocol: Next, reactions to U46619 and KCl were analyzed using artificial blood vessels produced from Werner syndrome patients iPS (FIG. 9A). iPS cells derived from healthy subjects and Werner syndrome patients were induced to differentiate into smooth muscle cells and blood vessel endothelial cells to produce artificial blood vessels as described above, and contraction with respect to U46619 and KCl was analyzed.
In addition to U46619, the relative contraction rate was also determined for angiotensin II (FIG. 9B). The artificial blood vessel was contracted by 200 nM U46619 or 100 nM angiotensin II, and the relative contraction rate was calculated with the contraction amount when 100 mM KCl was applied as 100%. […] Hereinafter, the artificial blood vessels produced using iPS cells derived from healthy subjects may be referred to as WT derived iPSC blood vessels, and the artificial blood vessels produced using iPS cells derived from Werner syndrome patients may be referred to as Werner derived iPSC blood vessels.
Artificial blood vessels were produced from iPS cells derived from healthy subjects and Werner syndrome patients and subjected to perfusion culture, and the contraction by U46619 was analyzed (FIG. 9C). […] This is considered to be caused by a decrease in NO production ability of blood vessel endothelial cells derived from iPS cells of Werner syndrome patients.

[2] = test system: artificial blood vessels produced from 201B7 cells (iPS cells derived from healthy subjects); experiment: Contraction of artificial blood vessels produced from 201B7 iPS cells in response to physiologically active substances; format: cell-based, human; details: for contraction rate after perfusion culture: 201B7 co-culture, immediately after start of perfusion culture vs third day of perfusion, FIG. 8B; for contraction reaction: artificial blood vessel of smooth muscle cells alone (201B7 vSMC) compared with 201B7 co-culture with endothelial cells, FIG. 8A; for concentration dependence of contraction rate: iPS cells derived from healthy subjects, U46619 0.05 nM to 0.5 nM, endothelin-1 100 nM to 1000 nM, n=5, FIG. 8C; for contraction reaction (same as with U46619): artificial blood vessels produced from 201B7 cells, physiological vasoconstrictors
Protocol: Next, it was analyzed whether the produced tissue engineered tube reproduces physiological reactions such as contraction and expansion with respect to a physiologically active substance. First, regarding artificial blood vessels produced from 201B7 cells, an artificial blood vessel of only smooth muscle cells (201B7 vSMC) and an artificial blood vessel obtained by seeding and co-culturing blood vessel endothelial cells induced to differentiate from 201B7 in an artificial blood vessel lumen (201B7 co-culture) were produced, and the contraction reaction due to U46619 and KCl was analyzed (FIG. 8A). U46619 is a stable synthetic analog of prostaglandin PGH2 and has an action of inducing blood vessel contraction as a thromboxane A2 receptor agonist. KCl is known to induce blood vessel contraction by membrane potential change. Since an individual difference may occur under a normal contraction amount, U46619 relative is a normalized value obtained by dividing the contraction amount when U46619 is applied by the contraction amount when KCl is applied, which indicates the maximum contraction force. […] NO is a vasodilator and is known to be released from blood vessel endothelial cells. Therefore, it is recognized that the produced artificial blood vessel reproduces the physiological mechanism. […] In the following experiments, artificial blood vessels co-cultured with endothelial cells were used unless otherwise specified.
In order to maintain a more physiological environment, perfusion culture was performed to examine whether the contraction rate was improved (FIG. 8B). Immediately after the start of perfusion culture, U46649 or KCl was applied to an artificial blood vessel produced from 201B7 cells (201B7 co-culture) on the third day of perfusion to analyze the contraction rate. […] It is known that blood vessel tissues change in phenotype, orientation, and the like and mature due to shear stress and blood pressure caused by perfusion culture.
It was analyzed whether the contraction of the artificial blood vessel with respect to U46619 and endothelin-1 depended on the concentration. Artificial blood vessels were produced using iPS cells derived from healthy subjects, and the contraction rates were measured while changing the concentrations of U46619 (0.05 nM to 0.5 nM) and endothelin-1 (100 nM to 1000 nM) (n=5). […] Therefore, it is recognized that the produced artificial blood vessels has have physiological properties.

| Compound | relative contraction rate, Werner derived vs WT derived iPSC blood vessels [1] | contraction against stimulation, WS2-C5 co-culture vs 201B7 co-culture [1] | contraction after perfusion culture, Werner derived vs WT derived iPSC blood vessels ([1]; perfusion culture, FIG. 9C) | contraction rate after perfusion culture [2] | contraction reaction [2] | concentration dependence of contraction rate [2] | contraction reaction (same as with U46619) [2] |
| --- | --- | --- | --- | --- | --- | --- | --- |
| CCCCC[C@H](O)/C=C/[C@@H]1[C@@H](C/C=C\CCCC(=O)O)[C@H]2CO[C@@H]1C2 [U46619] | exhibited stronger contraction force | tended to contract more strongly | an increase in contraction force was observed | an improvement in contraction rate due to perfusion culture was observed | high contraction was observed | contracted in a concentration-dependent manner |  |
| [Cl-].[K+] [KCl] |  | tended to contract more strongly |  | an improvement in contraction rate due to perfusion culture was observed | high contraction was observed |  |  |
| endothelin-1 (CSCSSLMDKECVYFCHLDIIW; disulfide 1-15, 3-11; ends not checked; UniProt P05305 53-73, looked up) [physiological vasoconstrictor] |  |  |  |  |  | contracted in a concentration-dependent manner | the same contraction reaction occurs |
| angiotensin II (DRVYIHPF; Angiotensin-2; UniProt P01019 25-32, looked up) [physiological vasoconstrictor] | exhibited stronger contraction force |  |  |  |  |  | the same contraction reaction occurs |

From patent US20260242745A1, “TISSUE ENGINEERED TUBE USING STEM CELL, AND METHOD FOR PRODUCING SAME” (TOHOKU UNIVERSITY, priority 2023, published 2026)
